Columns and labels:
[1] = tested on: UUO-model in the C57BL/6-mouse; test: Unilateral ureteral obstruction model (UUO-model) for nephritic fibrosis; type: in vivo; conditions: 100, 300, 1000 mg/kg body weight daily, oral suspension, two weeks
Source text: The anti-fibrotic effect of (S,E)-methyl-7-(1-(2-(2-ethylbutylamino)-2-oxoethyl)-2-oxo-1,2-dihydro-pyridin-3-ylamino)-6-(1-methyl-1H-imidazole-5-carboxamido)-7-oxohept-2-enoate (compound of formula (I)) in the kidney was investigated in an UUO-model in the C57BL/6-mouse. In a UUO-model, in one of the kidneys fibrosis is induced by ligation of one ureter. The other kidney remains functional. The pathophysiology of the UUO-model resembles the chronic nephropathy in humane (Chronic Kidney Disease, CKD).
Groups of 8 UUO-mice were treated directly after ligation of the ureter over a time period of two weeks with three different dosages of said compound: 100 mg/kg body weight, 300 mg/kg body weight, and 1000 mg/kg body weight. The daily dosage was administered orally as a suspension at intervals of 8 hours. In a control group, the UUO-mice were treated in same way but merely with the vehicle methyl cellulose. After the end of the treatment, the histopathological investigation of the kidney tissue as well as the determination of the amount of hydroxyproline in the kidney was performed. […]

[2] = Pharmacokinetic in healthy volunteers, multiple dosing over 7 days; type: in vivo, human; conditions: up to 100 mg
Protocol: The pharmacokinetic of (S,E)-methyl-7-(1-(2-(2-ethylbutylamino)-2-oxoethyl)-2-oxo-1,2-dihydro-pyridin-3-ylamino)-6-(1-methyl-1H-imidazole-5-carboxamido)-7-oxohept-2-enoate (compound of formula (I)) was investigated in healthy volunteers. Cohorts of 18 subjects each were treated with a daily dose of 10, 20, 50 and 100 mg compound of formula (I), respectively over a time period of 7 days. The determination of said compound in blood plasma was performed by means of a previously validated HPLC-MS/MS method.

[3] = Saturation solubility, pH-range 1 to 6.8, HPLC/UV; type: physicochemical; conditions: pH=6.8 (small intestine) compared with pH~1
[4] = tested on: adult patients with Celiac Disease (CeD); test: 6-week treatment of Celiac Disease patients under gluten challenge: ALT, AST, ALP levels; type: in vivo, human; conditions: for ALP, Change from baseline / ALT, Change from baseline / AST, Change from baseline / ALP, Difference versus placebo / ALT, Difference versus placebo / AST, Difference versus placebo: baseline to week 6; for Mean alanine aminotransferase (ALT) level, Baseline / Mean alkaline phosphatase (ALP) level, Baseline / Mean aspartate aminotransferase (AST) level, Baseline / Mean ALP level, Week 6 / Mean ALT level, Week 6 / Mean AST level, Week 6: safety population
Protocol: (§1) The efficacy and safety of a 6-week treatment with the compound of formula (I) in the hard gelatine capsule formulation described in example 2 was investigated in 160 adult patients with Celiac Disease (CeD). Patients, who were in clinical and histological remission at start of the study were challenged with 3 grams daily gluten intake and randomized to receive placebo or one of 3 doses of the compound of formula (I), i.e. 10 mg, 50 mg or 100 mg. Each morning after at least 6 hours of fasting, patients took the study drug orally, followed by one biscuit containing 3 g of gluten 30 minutes later, before breakfast. Throughout the 6-week study, patients were required to continue their strict gluten free diet.
as §1, with “described in the example 2” for “described in example 2”, “gluten free diet (see FIG. 12).” for “gluten free diet.”

[5] = tested on: STAM-model and UUO-model; test: Dose-activity-relationship in STAM-model and UUO-model; type: in vivo, C57BL/6-mouse
Source text: The reduction of the fibrotic area in the tissue in comparison to the untreated control animals can be considered as a measure for the anti-fibrotic effect of compound of formula (I) in STAM-model as well as in the UUO-model. For the STAM- and UUO-model the anti-fibrotic effect in dependence of the dose or in dependence of the exposure (Plasma Cmax or Plasma-AUC) are depicted in FIG. 5.

CCC(CC)CNC(=O)Cn1cccc(NC(=O)[C@H](CC/C=C/C(=O)OC)NC(=O)c2cncn2C)c1=O [compound of formula (I), (S,E)-methyl-7-(1-(2-(2-ethylbutylamino)-2-oxoethyl)-2-oxo-1,2-dihydro-pyridin-3-ylamino)-6-(1-methyl-1H-imidazole-5-carboxamido)-7-oxohept-2-enoate]
hydroxyproline content in the kidney [1]: remained unaffected
fibrotic area of the kidney ([1]; versus vehicle control): significant, marked, dosage dependent reduction
systemic exposure in human versus dose [2]: increases linearly
saturation solubility [3]: much lower
ALP, Change from baseline ([4]; 10 mg (N = 41)): −1.0 U/L
ALT, Change from baseline ([4]; 10 mg (N = 41)): −0.5 U/L
AST, Change from baseline ([4]; 10 mg (N = 41)): 0 U/L
Mean alanine aminotransferase (ALT) level, Baseline ([4]; 10 mg (N = 41)): 20.5 U/L
Mean alkaline phosphatase (ALP) level, Baseline ([4]; 10 mg (N = 41)): 60.0 U/L
Mean aspartate aminotransferase (AST) level, Baseline ([4]; 10 mg (N = 41)): 22.5 U/L
Mean ALP level, Week 6 ([4]; 10 mg (N = 41)): 59.3 U/L
Mean ALT level, Week 6 ([4]; 10 mg (N = 41)): 20.0 U/L
Mean AST level, Week 6 ([4]; 10 mg (N = 41)): 22.5 U/L
Mean ALT level, Week 10 (Follow-up) ([4]; 10 mg (N = 41)): 19.7 U/L
Mean AST level, Week 10 (Follow-up) ([4]; 10 mg (N = 41)): 20.6 U/L
ALP, Difference versus placebo ([4]; 10 mg versus placebo): −2.6 U/L
ALT, Difference versus placebo ([4]; 10 mg versus placebo, P value 0.0019): −4.4 U/L
AST, Difference versus placebo ([4]; 10 mg versus placebo, P value 0.0448): −3.2 U/L
ALP, Change from baseline ([4]; 50 mg (N = 41)): −0.5 U/L
ALT, Change from baseline ([4]; 50 mg (N = 41)): 0.8 U/L
AST, Change from baseline ([4]; 50 mg (N = 41)): 1.0 U/L
Mean alanine aminotransferase (ALT) level, Baseline ([4]; 50 mg (N = 41)): 21.4 U/L
Mean alkaline phosphatase (ALP) level, Baseline ([4]; 50 mg (N = 41)): 57.8 U/L
Mean aspartate aminotransferase (AST) level, Baseline ([4]; 50 mg (N = 41)): 22.6 U/L
Mean ALP level, Week 6 ([4]; 50 mg (N = 41)): 57.3 U/L
Mean ALT level, Week 6 ([4]; 50 mg (N = 41)): 22.2 U/L
Mean AST level, Week 6 ([4]; 50 mg (N = 41)): 23.6 U/L
Mean ALT level, Week 10 (Follow-up) ([4]; 50 mg (N = 41)): 21.7 U/L
Mean AST level, Week 10 (Follow-up) ([4]; 50 mg (N = 41)): 21.9 U/L
ALP, Difference versus placebo ([4]; 50 mg versus placebo): −2.8 U/L
ALT, Difference versus placebo ([4]; 50 mg versus placebo, P value 0.0069): −3.8 U/L
AST, Difference versus placebo ([4]; 50 mg versus placebo, P value 0.1423): −2.2 U/L
ALP, Change from baseline ([4]; 100 mg (N = 40)): −0.5 U/L
ALT, Change from baseline ([4]; 100 mg (N = 40)): −2.6 U/L
AST, Change from baseline ([4]; 100 mg (N = 40)): −0.4 U/L
Mean alanine aminotransferase (ALT) level, Baseline ([4]; 100 mg (N = 40)): 26.3 U/L
Mean alkaline phosphatase (ALP) level, Baseline ([4]; 100 mg (N = 40)): 62.7 U/L
Mean aspartate aminotransferase (AST) level, Baseline ([4]; 100 mg (N = 40)): 26.8 U/L
Mean ALP level, Week 6 ([4]; 100 mg (N = 40)): 62.3 U/L
Mean ALT level, Week 6 ([4]; 100 mg (N = 40)): 23.7 U/L
Mean AST level, Week 6 ([4]; 100 mg (N = 40)): 26.5 U/L
Mean ALT level, Week 10 (Follow-up) ([4]; 100 mg (N = 40)): 23.9 U/L
Mean AST level, Week 10 (Follow-up) ([4]; 100 mg (N = 40)): 24.3 U/L
ALP, Difference versus placebo ([4]; 100 mg versus placebo): −2.8 U/L
ALT, Difference versus placebo ([4]; 100 mg versus placebo, P value 0.0022): −4.3 U/L
AST, Difference versus placebo ([4]; 100 mg versus placebo, P value 0.8551): 0.3 U/L
elevation of alanine aminotransferase (ALT) from baseline to week 6 ([4]; 10, 50, 100 mg groups, gluten challenge, elevation seen in placebo group): not observed
difference between each drug group and placebo in ALT ([4]; P<0.01 for all comparisons): statistically significant
levels of AST, ALT, total protein ([4]; oral, doses of 10, 50 and 100 mg in human): significantly reduced
anti-fibrotic effect in dependence of the exposure in plasma ([5]; Plasma Cmax or Plasma-AUC): almost linear correlation
anti-fibrotic effect in STAM-model versus UUO-model ([5]; reduction of the fibrotic area versus control, liver and kidney): the same anti-fibrotic effect
